The values that follow are results of earlier work, collected in patent US20080300217A1, “Combination Therapy with Fumaric Acid Esters for the Treatment of Autoimmune and/or Inflammatory Disorders” (ADITECH PHARMA AB, priority 2005, published 2008).

The conditions of this series: pentoxifylline added to the standard Fumaderm treatment; psoriasis patients.

As for `CC(=O)CCCCn1c(=O)c2c(ncn2C)n(C)c1=O` [pentoxifylline], the “flush symptoms in patients” value is “reduced the flush symptoms in patients”.
